Assay results taken from patent publication US20150045425A1, “PELTATIN AND METABOLIC DISORDERS” (NESTEC S.A., priority 2012, published 2015).

System: HeLa cells
Experiment: Cellular toxicity, standard method, compared to untreated cells
Type: cell-based, human
Conditions: up to highest dose used
Method: The AC50 (upper part of the insert) and the maximum % activation (lower part of the insert) are given. Cellular toxicity was also assessed with standard method compared to untreated cells and shown in % of toxicity.
An edible plant fraction library was tested for PPARs agonist activity and toxicity. Then relevant plant fractions were further analyzed and bioactive(s) characterized and validated with the same hPPARa, hPPARg or hPPARd reporter bioassays. The reporter bioassay we used in order to identify anti-inflammatory plant properties targeted activation of human PPARs in human HeLa cells (as described in the FIG. 1). All isolated bioactives were tested in a dose response manner in duplicate. Assays were repeated 3-4 times. Shown are mean values obtained. Therefore specificity (for all the three known human PPAR receptors namely PPARa, PPARd and PPARg) and efficacy (full agonist i.e. % maximal activity >100% or partial agonist i.e. % maximal activity <100%) were tested (FIG. 2-4).

Measured: Cellular toxicity (% of toxicity)

COc1cc([C@@H]2c3cc4c(c(O)c3C[C@H]3COC(=O)[C@@H]32)OCO4)cc(OC)c1OC [beta-Peltatin]
no toxicity was observed: FIG. 2, PPARa activation dose-response | FIG. 3, PPARg activation dose-response | FIG. 4, PPARd activation dose-response
